Experimental data published in patent US20100144781A1, “METHODS OF TREATING PSYCHOSIS AND SCHIZOPHRENIA BASED ON POLYMORPHISMS IN THE ERBB4 GENE” (priority 2008, published 2010).

Test system: subjects with schizophrenia
Assay: Change in PANSS total score by rs6435681 (ErbB4) genotype, pooled paliperidone arms of clinical trial Nos. 1-4
Assay type: in vivo, human
Conditions: trials 1-4; for mean reduction in PANSS total score: baseline to end of study
Procedure: The paliperidone treated arms of clinical trial Nos. 1-4, were pooled and examined for genetic association. The trial Nos. 1-3 were paliperidone ER phase III studies and trial No. 4 was a paliperidone palmitate phase II/III study. To confirm results of the initial genetic association, additional paliperidone treated cohorts, including paliperidone palmitate phase III clinical trial Nos 5-8 and paliperidone ER phase III/IV trial Nos. 9 and 10 were evaluated. The results were further examined with the placebo arms of trial Nos. 1-4 and 6-10, the olanzapine arms of trial Nos. 1-3 and 11, the quetiapine arm of trial No. 9, and the Risperdal Consta arm of the trials No. 5 and 11.
Trial Nos. 1 to 3 were randomized, double-blind, placebo and active controlled phase III trials that were designed to evaluate efficacy and safety of paliperidone-ER in the acute treatment of subjects with schizophrenia. Schizophrenic patients experiencing active symptoms, with Positive and Negative […] (PANSS) score=70-120, were enrolled and randomized to different treatment groups. The patients received paliperidone-ER of 3 mg, 6 mg, 9 mg, 12 mg, or 15 mg, olanzapine of 10 mg or placebo tablet once daily for 6 weeks. Primary efficacy variable/Primary Time point was changed in the total PANSS score from baseline to endpoint. The baseline value was the measurement from the last visit prior to or including the first day of dosing with double-blind study medication, and the endpoint value was the measurement at the end of the double-blind phase or the last post-baseline observation during the double-blind phase. Detailed clinical study design and outcomes of trial Nos. 1-3 were described elsewhere (Marder et al., Biol Psychiatry. 2007, 62:1363-70; Davidson et al., Schizophr Res. 2007, 93:117-30; Kane et al., Schizophr Res. 2007, 90:147-61. Epub).
Trial No. 4 was a randomized, double-blind, placebo-controlled phase II/III study to evaluate the efficacy and safety of long-acting injections of paliperidone palmitate at fixed doses of 50 and 100 mg equivalent in subjects with schizophrenia. Subjects were required to have a total PANSS score between 70 and 120 at Screening and between 60 and 120 on Day 1 prior to the start of double-blind treatment. The primary efficacy variable was the change in total PANSS score from the start of the double-blinded treatment period to the last post-randomization assessment in the double-blinded treatment period.
DNA collected from subjects who consented to the optional pharmacogenomic component of the above clinical trials were analyzed in the genetic study. Briefly, blood samples were collected from subjects and extracted for genomic DNA. […]

SMILES: Cc1nc2n(c(=O)c1CCN1CCC(c3noc4cc(F)ccc34)CC1)CCCC2O (stereo not shown) [Paliperidone]
- mean reduction in PANSS total score (patients with AA genotype at rs6435681 (N=25)): 0.6
- patients displaying a 30% or higher reduction in PANSS total score from baseline (patients with AA genotype): 8%
- mean reduction in PANSS total score (patients with GG or GA genotype at rs6435681 (N=659)): 17.8
- patients displaying a 30% or higher reduction in PANSS total score from baseline (patients with GG/GA genotype): Twenty-nine
